Measured values reported in patent US11485720B2, “Anti-infective agents” (University of Dundee, priority 2016, dated 2022).
In brackets after ≈: the same amount, converted by molar mass. Several values for one entry are separate records, joined by “and”; a condition that tells them apart may be missing. Equal values may be shown once. Read-outs that look alike come from different tables or passages of the source.

Experiments:
[1] = target: PfLysRS (Plasmodium falciparum, UniProt Q8IDJ8); conditions: cited from earlier work
[2] = target: Schistosoma mansoni (Sm) lysyl-tRNA synthetase; conditions: cited from earlier work
[3] = test system: blood and liver stages of Plasmodium; conditions: cited from earlier work
[4] = cited from earlier work
[5] = test system: Hep G2; test: Hep G2 in-vitro cytotoxicity assay; type: cell-based; conditions: Homo sapiens, HepG2, read-out: Hs HEPG2 pEC50 (converted)
In short: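 Hep G2 human hepatocyte carcinoma cells serve as a general mammalian cell toxicity indicator, following the Mersch-Sundermann procedure.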

[6] = test system: Cryptosporidium parvum; test: In vitro Crytosporidium inhibition assay; type: cell-based; conditions: for EC50: Cryptosporidium parvum, read-out: Cryptosporidium parvum pEC50 (converted)
From the text: Assay Method for Measurement of In Vitro Inhibition of Crytosporidium.
These experiments were run in accordance with the method of Besssoff et. al. Antimicrob. Agents Chemother. 2013, 57:1804-1814. Results from these experiments are provided in the Experimental Results hereinafter.

[7] = target: T1, Plasmodium falciparum lysyl t-RNA synthetase (Pf-KRS1) (Plasmodium falciparum, UniProt Q8IDJ8); test: Pf-KRS1 inhibition biochemical assay (Kinase-Glo, ATP depletion)
T1 construct: Pf KRS1-; made in house; host or cells: E. coli BL21 (DE3)
In short: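 Recombinant Pf-KRS1 (75 nM working concentration) in HEPES/KOH/MgCl2/KCl buffer with 3 μM ATP, 60 μM L-lysine, 0.4 mg/ml yeast tRNA and pyrophosphatase; compounds at 50 μM–2.5 nM final. Reaction ran 5 h at room temperature, then remaining ATP was read by Kinase-Glo luminescence. IC50 came from nonlinear fits of % inhibition against controls.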

[8] = test system: Leishmania donovani; test: Ld-cAxAm-TP-pMIC assay; type: cell-based; conditions: read-out: Ld-cAxAm-TP-pMIC pEC50 (converted)
[9] = test system: THP-1 cells; test: THP-1 host cell count in intramacrophage Leishmania assay; type: cell-based; conditions: Homo sapiens, host cell toxicity, read-out: THP1 pEC50 (converted)
Procedure: The intramacrophage Leishmania assay was performed as described in de Rycker et al (Antimicrob Agents Chemother, 2013 July; 57(7):2913-22. doi: 10.1128/AAC.02398-12). Briefly, 1 μl of compound was pre-dispensed into 384 well sterile intermediary plates. For single point screening, amphotericin B was added to all wells of column 24 as a positive control (final concentration 2 μM) and DMSO to column 23. For potency determinations, ten-point, one in three dilution curves were created with the highest concentration being 50 μM and on each plate a control curve of amphotericin B was included. Controls were as follows: columns 11 and 12: DMSO, columns 23 and 24: amphotericin B (final concentration 2 μM). To the intermediary plates, 100 μl of THP-1 media was added and plates were shaken for >5 min to ensure complete mixing. THP-1 cells (8,000 per well, 50 μl) were plated into black clear-bottom 384 well plates (Corning) in presence of 10 nM PMA. After 20 min at room temperature, the plates were incubated at 37° C. under 5% CO2 in a humidified incubator for 75 h. The cells were then washed with […] sterile phosphate buffered saline (PBS) supplemented with 1 mM CaCl2, 0.5 mM MgCl2, 0.1% (w/v) bovine serum albumin (PBS-A) and amastigotes were added to all wells at a multiplicity of infection of 5 (40,000 amastigotes per well). After 40 min at room temperature, plates were returned to the incubator. Amastigotes were incubated in the presence of macrophages for 16 h. Any remaining extracellular amastigotes were subsequently removed with an overflow wash of 1 ml PBS-A per well (wash buffer is being aspirated from the top of the well as it is being dispensed) followed by addition of 25 μl of the compound pre-dilutions using a Matrix Hydra DT pipetting station. The final dilution of each compound was 200-fold. Plates were incubated for 72 h and then washed (250 μl PBS-A) and fixed (4% (v/v) formaldehyde-PBS, 30 min, room temperature). After fixation, the wells were washed with 250 μl PBS, stained (10 μg/ml DAPI, 0.4 μg ml-1 HCS Cellmask Deep Red in PBS+0.1% (v/v) Triton X-100, 30 min, room temperature) and washed with 250 μl PBS. Finally, PBS+0.05% (v/v) thimerosal was added to the wells, the plates were sealed and imaged on a high-content microscope (GE IN Cell 1000 or GE IN Cell 2000) using a 10× objective. Image analysis was carried out with GE IN Cell Analyzer 1000 Workstation using the “Multi Target Analysis” module. Settings for segmentation were as follows: nuclei: minimum area: 142.384 μm^2, sensitivity: 81, method: top-hat; cells: characteristic area: 2500 μm^2, sensitivity: 60, method: multiscale top-hat; organelles (amastigotes): granule size 1-3, 3 scales, sensitivity: 90, detection in entire cell. […]

[10] = test system: Leishmania donovani; test: Leishmania donovani intramacrophage inhibition assay (Ld-INMAC); type: cell-based; conditions: intramacrophage amastigotes in THP-1 cells, read-out: Ld-INMAC pEC50 (converted)
Procedure: Assay Method for Measurement of In Vitro Inhibition of Leishmania donovani.
These experiments were run in accordance with the method as detailed herein and results from these experiments are provided in the Experimental Results hereinafter.
The intramacrophage Leishmania assay was performed as described in de Rycker et al (Antimicrob Agents Chemother, 2013 July; 57(7):2913-22. doi: 10.1128/AAC.02398-12). Briefly, 1 μl of compound was pre-dispensed into 384 well sterile intermediary plates. For single point screening, amphotericin B was added to all wells of column 24 as a positive control (final concentration 2 μM) and DMSO to column 23. For potency determinations, ten-point, one in three dilution curves were created with the highest concentration being 50 μM and on each plate a control curve of amphotericin B was included. Controls were as follows: columns 11 and 12: DMSO, columns 23 and 24: amphotericin B (final concentration 2 μM). To the intermediary plates, 100 μl of THP-1 media was added and plates were shaken for >5 min to ensure complete mixing. THP-1 cells (8,000 per well, 50 μl) were plated into black clear-bottom 384 well plates (Corning) in presence of 10 nM PMA. After 20 min at room temperature, the plates were incubated at 37° C. under 5% CO2 in a humidified incubator for 75 h. The cells were then washed with […] sterile phosphate buffered saline (PBS) supplemented with 1 mM CaCl2, 0.5 mM MgCl2, 0.1% (w/v) bovine serum albumin (PBS-A) and amastigotes were added to all wells at a multiplicity of infection of 5 (40,000 amastigotes per well). After 40 min at room temperature, plates were returned to the incubator. Amastigotes were incubated in the presence of macrophages for 16 h. Any remaining extracellular amastigotes were subsequently removed with an overflow wash of 1 ml PBS-A per well (wash buffer is being aspirated from the top of the well as it is being dispensed) followed by addition of 25 μl of the compound pre-dilutions using a Matrix Hydra DT pipetting station. The final dilution of each compound was 200-fold. Plates were incubated for 72 h and then washed (250 μl PBS-A) and fixed (4% (v/v) formaldehyde-PBS, 30 min, room temperature). After fixation, the wells were washed with 250 μl PBS, stained (10 μg/ml DAPI, 0.4 μg ml-1 HCS Cellmask Deep Red in PBS+0.1% (v/v) Triton X-100, 30 min, room temperature) and washed with 250 μl PBS. Finally, PBS+0.05% (v/v) thimerosal was added to the wells, the plates were sealed and imaged on a high-content microscope (GE IN Cell 1000 or GE IN Cell 2000) using a 10× objective. Image analysis was carried out with GE IN Cell Analyzer 1000 Workstation using the “Multi Target Analysis” module. […]

[11] = test system: Plasmodium falciparum strain 3D7; test: Plasmodium falciparum 3D7 in vitro growth inhibition (SYBRgreen I); type: cell-based; conditions: Plasmodium falciparum, 3D7; read-out: pEC50 for Pf 3D7 (converted)
In short: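 10-point, 1-in-3 dilution series from a top concentration of 50 μM; parasite growth read as SYBRgreen I fluorescence on double-stranded DNA (ex 485/em 528 nm). EC50 = concentration causing 50% parasite death, from at least 3 independent experiments.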

[12] = test system: Plasmodium falciparum; test: Anti-malarial in vivo efficacy, Plasmodium falciparum SCID mouse model; conditions: 20 mg/kg, 4 days
From the text: Measurement of Anti-Malarial In Vivo Efficacy The in vivo measurement of the potential efficacy of compounds of formula (I) in a malarial model has been carried out. These in vivo experiments were run in accordance with the method published in Jimenez-Diaz, M. B. et al., Antimicrob. Agents Chemother. 53, 4533-4536, (2009). Results from these experiments are provided in the Experimental Results hereinafter.

[13] = test system: M. tuberculosis H37Rv; test: In vitro inhibition of M. tuberculosis H37Rv (MIC, resazurin); type: cell-based; conditions: Mycobacterium tuberculosis, read-out: Mtb MIC
[14] = test system: Cryptosporidium parvum; test: Anti-Cryptosporidium in vivo efficacy, NOD SCID gamma mouse model; conditions: 50 mg/kg, twice a day (bid), 4 days
From the text: Measurement of Anti-Cryptosporidium In Vivo Efficacy
The in vivo measurement of the potential efficacy of compounds of formula (I) in two cryptosporidium models has been carried out.
The cryptosporidiosis NOD SCID gamma mouse model were run as follows: Male NOD SCID gamma mice (NOD.Cg-Prkdc^scid Il2rg^tm1Wjl/SzJ, Jackson Labs) were infected approximately 2 weeks post weaning with 10^5 C. parvum Iowa strain oocysts by oral gavage. Four mice were used per experimental group. This establishes a chronic, asymptomatic infection of the small intestine, cecum, and biliary tree. Fecal parasite shedding is monitored by quantitative PCR to amplify C. parvum DNA. One week after infection (which is the timing with which shedding becomes uniformly detected), compounds are dosed by oral gavage based. Treatment continued for four days total. Fecal oocyst shedding is reported on day 1 (7 days after initial infection with sample taken just prior to the first dose of compound) and day 5 (1 day after completion of the last dose).

[15] = read-out: Pf-KRS pIC50 (converted)

T1 sequence (Q8IDJ8 entry or part of it, looked up, natural form): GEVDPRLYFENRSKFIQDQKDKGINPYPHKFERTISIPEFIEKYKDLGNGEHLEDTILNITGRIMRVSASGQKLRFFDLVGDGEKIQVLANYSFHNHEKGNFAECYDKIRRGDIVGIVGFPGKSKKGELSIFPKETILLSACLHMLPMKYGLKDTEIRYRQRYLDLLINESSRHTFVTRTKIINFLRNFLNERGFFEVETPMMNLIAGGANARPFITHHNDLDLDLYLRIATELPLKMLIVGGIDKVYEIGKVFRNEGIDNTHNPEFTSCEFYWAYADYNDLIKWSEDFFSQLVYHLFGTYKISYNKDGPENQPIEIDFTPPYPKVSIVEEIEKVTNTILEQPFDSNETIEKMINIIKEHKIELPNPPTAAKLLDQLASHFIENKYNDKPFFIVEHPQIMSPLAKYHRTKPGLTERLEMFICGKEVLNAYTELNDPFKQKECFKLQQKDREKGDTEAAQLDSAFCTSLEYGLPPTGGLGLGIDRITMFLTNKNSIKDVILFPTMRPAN
Sequence of PfLysRS (Q8IDJ8 1-583): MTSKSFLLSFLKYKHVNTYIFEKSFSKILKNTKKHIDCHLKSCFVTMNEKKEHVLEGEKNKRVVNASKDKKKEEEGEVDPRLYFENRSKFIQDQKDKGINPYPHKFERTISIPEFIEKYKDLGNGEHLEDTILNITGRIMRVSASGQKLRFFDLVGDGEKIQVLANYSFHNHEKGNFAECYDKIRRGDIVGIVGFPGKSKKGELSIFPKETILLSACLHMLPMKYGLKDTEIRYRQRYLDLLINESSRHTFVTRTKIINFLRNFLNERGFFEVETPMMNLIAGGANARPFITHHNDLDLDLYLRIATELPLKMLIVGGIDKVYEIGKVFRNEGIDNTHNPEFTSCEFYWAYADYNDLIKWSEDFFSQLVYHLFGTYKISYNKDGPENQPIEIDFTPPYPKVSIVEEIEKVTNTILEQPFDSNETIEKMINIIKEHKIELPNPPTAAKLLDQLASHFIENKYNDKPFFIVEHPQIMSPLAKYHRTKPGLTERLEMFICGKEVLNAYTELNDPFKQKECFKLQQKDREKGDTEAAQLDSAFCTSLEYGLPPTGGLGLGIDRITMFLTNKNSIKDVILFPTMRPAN

Compound	selectivity vs HsLysRS [1]	IC50 ([2]; Sharma et al., read-out: Sm LysRS IC50)	selectivity vs HsLysRS ([2]; Sm LysRS vs HsLysRS)	inhibition of blood and liver stages of Plasmodium [3]	bioavailability [4]	EC50 [5]	EC50 [6]	IC50 [7, 15]	EC50 [8]	EC50 [9]	EC50 [10]	EC50 [11]	Cryptosporidium parvum pEC50 [6]	% Reduction in parasitaemia [12]	MIC [13]	% Reduction in parasitaemia [14]	IC50 ([7]; Pf-KRS pIC50)
C[C@H]1CCC[C@H](C[C@H]2Cc3cc(O)cc(O)c3C(=O)O2)O1 [Cladosporin, cladosporin]	more than 100 fold	0.097 µM	more than 60 fold	nanomolar inhibitor	poorly bioavailable												
O=C(NCC1(O)CCCCC1)c1cc(=O)c2cc(Cl)ccc2o1 [Example 48, 6-chloro-N-[(1-hydroxycyclohexyl)methyl]-4-oxo-chromene-2-carboxamide]						31.6 µM	0.0631 µM	0.126 µM	10 µM	> 50.1 µM	7.94 µM	0.398 µM					
O=C(NCC1(O)CCC(F)(F)CC1)c1cc(=O)c2cc(F)ccc2o1 [Example 54, N-[(4,4-difluoro-1-hydroxy-cyclohexyl)methyl]-6-fluoro-4-oxo-chromene-2-carboxamide]						50.1 µM	1.26 µM	0.126 µM and 0.251 µM	12.6 µM	50.1 µM	31.6 µM		5.8	99.2%			
O=C(NCC1(O)CCCCC1)c1cc(=O)c2cc(F)cc(O)c2o1 [Example 74, 6-fluoro-8-hydroxy-N-((1-hydroxycyclohexyl)methyl)-4-oxo-4H-chromene-2-carboxamide]						31.6 µM	0.0398 µM	0.0501 µM				0.0631 µM			25 µM (≈ 8.38 µg/mL)	92.5%	
O=C(NCC1(O)CCCCC1)c1cc(=O)c2ccc(F)c(O)c2o1 [Example 77, 7-fluoro-8-hydroxy-N-((1-hydroxycyclohexyl)methyl)-4-oxo-4H-chromene-2-carboxamide]						39.8 µM	0.126 µM					0.126 µM				99.6%	0.1 µM
O=C(NCC1CCCCC1)c1cc(=O)c2ccc(F)c(O)c2o1 [Example 78, N-(cyclohexylmethyl)-7-fluoro-8-hydroxy-4-oxo-4H-chromene-2-carboxamide]						20 µM	0.001 µM	0.0794 µM				0.1 µM				99.4%	
O=C(NCC1(O)CCCCC1)c1cc(=O)c2cc(O)cc(F)c2o1 [Example 81, 8-fluoro-6-hydroxy-N-((1-hydroxycyclohexyl)methyl)-4-oxo-4H-chromene-2-carboxamide]						15.8 µM	0.126 µM	0.2 µM	6.31 µM	> 50.1 µM	20 µM						
